Data taken from PubChem BioAssay AID1963446 (Molecular Pharmacology Branch, DTP, NCI, 2024).
One block for each compound: values may come before it.

Test system: 993429-296-R-J1-PDC complex spheroid growth, percent test/control
Experiment: Anticancer human tumor 993429-296-R-J1-PDC patient-derived uterine sarcoma cell line growth inhibition [Asc]
Conditions: for IC50: curve of first compound; for viability, T/C: stronger effect = lower value
Summary of the method: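 Tumor cells were grown as complex spheroids with human endothelial cells (HUVEC) and human mesenchymal stem cells as stroma. Agents were tested alone and in combination, in half-log steps down from the clinical Cmax, or from 10 microM where Cmax was unknown.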

[1] = second compound 0.03 µM, first compound 0.00316 µM
[2] = second compound 0.03 µM, first compound 0.01 µM
[3] = second compound 0.03 µM, first compound 0.0316 µM
[4] = second compound 0.03 µM, first compound 0.1 µM
[5] = second compound 0.0949 µM, first compound 0.00316 µM
[6] = second compound 0.0949 µM, first compound 0.01 µM
[7] = second compound 0.0949 µM, first compound 0.0316 µM
[8] = second compound 0.0949 µM, first compound 0.1 µM
[9] = second compound 0.3 µM, first compound 0.00316 µM
[10] = second compound 0.3 µM, first compound 0.01 µM
[11] = second compound 0.3 µM, first compound 0.0316 µM
[12] = second compound 0.3 µM, first compound 0.1 µM
[13] = second compound 0.949 µM, first compound 0.00316 µM
[14] = second compound 0.949 µM, first compound 0.01 µM
[15] = second compound 0.949 µM, first compound 0.0316 µM
[16] = second compound 0.949 µM, first compound 0.1 µM
[17] = second compound 3 µM, first compound 0.00316 µM
[18] = second compound 3 µM, first compound 0.01 µM
[19] = second compound 3 µM, first compound 0.0316 µM
[20] = second compound 3 µM, first compound 0.1 µM
[21] = second compound 0.1 µM, first compound 0.00316 µM
[22] = second compound 0.1 µM, first compound 0.01 µM
[23] = second compound 0.1 µM, first compound 0.0316 µM
[24] = second compound 0.1 µM, first compound 0.1 µM
[25] = second compound 0.316 µM, first compound 0.00316 µM
[26] = second compound 0.316 µM, first compound 0.01 µM
[27] = second compound 0.316 µM, first compound 0.0316 µM
[28] = second compound 0.316 µM, first compound 0.1 µM
[29] = second compound 1 µM, first compound 0.00316 µM
[30] = second compound 1 µM, first compound 0.01 µM
[31] = second compound 1 µM, first compound 0.0316 µM
[32] = second compound 1 µM, first compound 0.1 µM
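Note: spheroids exposed to compounds for seven days.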

IC50 (second compound 0.03 µM): > 100 nM
IC50 (second compound 0.0949 µM): 75.8 nM
IC50 (second compound 0.3 µM): 65.3 nM
IC50 (second compound 0.949 µM): > 100 nM
IC50 (second compound 3 µM): 66.2 nM
SMILES: Cn1ncnc1[C@H]1c2n[nH]c(=O)c3cc(F)cc(c23)N[C@@H]1c1ccc(F)cc1 + CCN1C(C(=O)NC23CCC(C(=O)O)(CC2)CC3)C(c2cccc(Cl)c2F)C2(C(=O)Nc3cc(Cl)ccc32)C12CCCCC2
viability, T/C (second compound 0.03 µM, first compound 0.000316 µM): 114%
viability, T/C (second compound 0.03 µM, first compound 0.001 µM): 107%
viability, T/C [1]: 104%
viability, T/C [2]: 62%
viability, T/C [3]: 62%
viability, T/C [4]: 45.1%
viability, T/C (second compound 0.0949 µM, first compound 0.000316 µM): 94%
viability, T/C (second compound 0.0949 µM, first compound 0.001 µM): 102%
viability, T/C [5]: 89.4%
viability, T/C [6]: 73.6%
viability, T/C [7]: 64.6%
viability, T/C [8]: 45.4%
viability, T/C (second compound 0.3 µM, first compound 0.000316 µM): 96.5%
viability, T/C (second compound 0.3 µM, first compound 0.001 µM): 104%
viability, T/C [9]: 90.6%
viability, T/C [10]: 77.3%
viability, T/C [11]: 66%
viability, T/C [12]: 41.4%
viability, T/C (second compound 0.949 µM, first compound 0.000316 µM): 109%
viability, T/C (second compound 0.949 µM, first compound 0.001 µM): 101%
viability, T/C [13]: 92.3%
viability, T/C [14]: 65.1%
viability, T/C [15]: 59.9%
viability, T/C [16]: 48%
viability, T/C (second compound 3 µM, first compound 0.000316 µM): 91.5%
viability, T/C (second compound 3 µM, first compound 0.001 µM): 91.8%
viability, T/C [17]: 82.8%
viability, T/C [18]: 72.5%
viability, T/C [19]: 61.5%
viability, T/C [20]: 43.9%

IC50 (second compound 0.01 µM): > 100 nM
IC50 (second compound 0.0316 µM): > 100 nM
IC50 (second compound 0.1 µM): > 100 nM
IC50 (second compound 0.316 µM): > 100 nM
IC50 (second compound 1 µM): < 0.316 nM
SMILES: NC1CCC(NC2CC2c2ccccc2)CC1 (stereo not given) + CNC(C)C(=O)NC1CN(S(=O)(=O)c2cccc(S(=O)(=O)N3CCC4CCC(C(=O)NC(c5ccccc5)c5ccccc5)N4C(=O)C(NC(=O)C(C)NC)C3)c2)CCC2CCC(C(=O)NC(c3ccccc3)c3ccccc3)N2C1=O
viability, T/C (second compound 0.01 µM, first compound 0.000316 µM): 63.9%
viability, T/C (second compound 0.01 µM, first compound 0.001 µM): 62.7%
viability, T/C (second compound 0.01 µM, first compound 0.00316 µM): 57.3%
viability, T/C (second compound 0.01 µM, first compound 0.01 µM): 63.6%
viability, T/C (second compound 0.01 µM, first compound 0.0316 µM): 57.8%
viability, T/C (second compound 0.01 µM, first compound 0.1 µM): 63.4%
viability, T/C (second compound 0.0316 µM, first compound 0.000316 µM): 53.3%
viability, T/C (second compound 0.0316 µM, first compound 0.001 µM): 56.3%
viability, T/C (second compound 0.0316 µM, first compound 0.00316 µM): 48.5%
viability, T/C (second compound 0.0316 µM, first compound 0.01 µM): 46.5%
viability, T/C (second compound 0.0316 µM, first compound 0.0316 µM): 57.7%
viability, T/C (second compound 0.0316 µM, first compound 0.1 µM): 57.9%
viability, T/C (second compound 0.1 µM, first compound 0.000316 µM): 53.1%
viability, T/C (second compound 0.1 µM, first compound 0.001 µM): 53.5%
viability, T/C [21]: 58.6%
viability, T/C [22]: 54.9%
viability, T/C [23]: 58.3%
viability, T/C [24]: 56%
viability, T/C (second compound 0.316 µM, first compound 0.000316 µM): 59.7%
viability, T/C (second compound 0.316 µM, first compound 0.001 µM): 51.5%
viability, T/C [25]: 48.1%
viability, T/C [26]: 50.2%
viability, T/C [27]: 53.2%
viability, T/C [28]: 49.8%
viability, T/C (second compound 1 µM, first compound 0.000316 µM): 45.9%
viability, T/C (second compound 1 µM, first compound 0.001 µM): 41.7%
viability, T/C [29]: 39.7%
viability, T/C [30]: 41.1%
viability, T/C [31]: 47.9%
viability, T/C [32]: 28.1%

IC50 (second compound 0.03 µM): > 1000 nM
IC50 (second compound 0.0949 µM): > 1000 nM
IC50 (second compound 0.3 µM): > 1000 nM
IC50 (second compound 0.949 µM): > 1000 nM
IC50 (second compound 3 µM): > 1000 nM
SMILES: CCN1CCN(Cc2ccc(Nc3ncc(F)c(-c4cc(F)c5nc(C)n(C(C)C)c5c4)n3)nc2)CC1 + CCN1C(C(=O)NC23CCC(C(=O)O)(CC2)CC3)C(c2cccc(Cl)c2F)C2(C(=O)Nc3cc(Cl)ccc32)C12CCCCC2
viability, T/C [1]: 101%
viability, T/C [2]: 98.5%
viability, T/C [3]: 102%
viability, T/C [4]: 110%
viability, T/C (second compound 0.03 µM, first compound 0.316 µM): 103%
viability, T/C (second compound 0.03 µM, first compound 1 µM): 125%
viability, T/C [5]: 99.8%
viability, T/C [6]: 107%
viability, T/C [7]: 97.3%
viability, T/C [8]: 95.5%
viability, T/C (second compound 0.0949 µM, first compound 0.316 µM): 110%
viability, T/C (second compound 0.0949 µM, first compound 1 µM): 98.3%
viability, T/C [9]: 102%
viability, T/C [10]: 105%
viability, T/C [11]: 89.5%
viability, T/C [12]: 109%
viability, T/C (second compound 0.3 µM, first compound 0.316 µM): 120%
viability, T/C (second compound 0.3 µM, first compound 1 µM): 104%
viability, T/C [13]: 103%
viability, T/C [14]: 99.5%
viability, T/C [15]: 106%
viability, T/C [16]: 99.9%
viability, T/C (second compound 0.949 µM, first compound 0.316 µM): 107%
viability, T/C (second compound 0.949 µM, first compound 1 µM): 131%
viability, T/C [17]: 97.2%
viability, T/C [18]: 92.9%
viability, T/C [19]: 99.7%
viability, T/C [20]: 77.8%
viability, T/C (second compound 3 µM, first compound 0.316 µM): 84.5%
viability, T/C (second compound 3 µM, first compound 1 µM): 115%

IC50 (second compound 0.1 µM): 7.5 nM
IC50 (second compound 0.316 µM): 9.6 nM
IC50 (second compound 1 µM): 4.44 nM
IC50 (second compound 3.16 µM): < 3.16 nM
IC50 (second compound 10 µM): 15.8 nM
SMILES: O=C(c1ccc(F)c(F)c1Nc1ccc(I)cc1F)N1CC(O)([C@@H]2CCCCN2)C1 + Cc1c(S(C)(=O)=O)c(-c2cc(F)cc(N3CCN(c4ccc(NS(=O)(=O)c5ccc(NC(CCN6CCC(C(=O)OCCCP(=O)(O)O)CC6)CSc6ccccc6)c(S(=O)(=O)C(F)(F)F)c5)cc4)CC3)c2)c(-c2ccc(Cl)cc2)n1C(C)C
viability, T/C [21]: 63%
viability, T/C [22]: 42.8%
viability, T/C [23]: 31.9%
viability, T/C [24]: 10.2%
viability, T/C (second compound 0.1 µM, first compound 0.316 µM): 1.93%
viability, T/C (second compound 0.1 µM, first compound 1 µM): 0.33%
viability, T/C [25]: 55.9%
viability, T/C [26]: 52.7%
viability, T/C [27]: 29.1%
viability, T/C [28]: 15.3%
viability, T/C (second compound 0.316 µM, first compound 0.316 µM): 1.67%
viability, T/C (second compound 0.316 µM, first compound 1 µM): 0.23%
viability, T/C [29]: 57.6%
viability, T/C [30]: 30.8%
viability, T/C [31]: 19.3%
viability, T/C [32]: 5.07%
viability, T/C (second compound 1 µM, first compound 0.316 µM): 0.22%
viability, T/C (second compound 1 µM, first compound 1 µM): 0.14%
viability, T/C (second compound 3.16 µM, first compound 0.00316 µM): 39.2%
viability, T/C (second compound 3.16 µM, first compound 0.01 µM): 30.8%
viability, T/C (second compound 3.16 µM, first compound 0.0316 µM): 21.1%
viability, T/C (second compound 3.16 µM, first compound 0.1 µM): 2.83%
viability, T/C (second compound 3.16 µM, first compound 0.316 µM): 0.52%
viability, T/C (second compound 3.16 µM, first compound 1 µM): 0.18%
viability, T/C (second compound 10 µM, first compound 0.00316 µM): 72%
viability, T/C (second compound 10 µM, first compound 0.01 µM): 68.7%
viability, T/C (second compound 10 µM, first compound 0.0316 µM): 21.6%
viability, T/C (second compound 10 µM, first compound 0.1 µM): 3.49%
viability, T/C (second compound 10 µM, first compound 0.316 µM): 0.84%
viability, T/C (second compound 10 µM, first compound 1 µM): 0.16%
